{"source": "patent US7071293B1", "about": "“Alpha helical peptides with broad spectrum antimicrobial activity that are insensitive to salt” (priority 1999, dated 2006)", "key": {"P. aeruginosa PAO1": {"system": "P. aeruginosa PAO1", "conditions": "for EC50 P. aeruginosa PAO1 μg/ml ± sem: average ± sem"}, "E. coli DH-5α": {"system": "E. coli DH-5α", "conditions": "DH-5α"}, "E. coli ML-35p": {"system": "E. coli ML-35p", "conditions": "for E. coli ML-35p MIC, 0 mM NaCl: underlay 0 mM NaCl; for E. coli ML-35p MIC, 0 mM NaCl / E. coli ML-35p MIC, 175 mM NaCl: Table 15; for E. coli ML-35p MIC, 175 mM NaCl: underlay 175 mM NaCl"}, "[1]": {"conditions": "ionic strength 25 mM, avg ± sem"}, "[2]": {"conditions": "ionic strength 175 mM, avg ± sem"}}, "note": "Read-outs that look alike come from different tables or passages of the source. Ends that are not written are not given here."}
{"substance": "LRRIIRKIIHIIK-NH2 [SMAP29X-13A]", "values": [{"measurement": "EC50 P. aeruginosa PAO1 μg/ml ± sem", "setting": "P. aeruginosa PAO1; ionic strength 25 mM", "result": "0.27 ± 0.03", "unit": "µg/mL"}, {"measurement": "EC50 P. aeruginosa PAO1 μg/ml ± sem", "setting": "P. aeruginosa PAO1; ionic strength 175 mM", "result": "2.23 ± 0.41", "unit": "µg/mL"}]}
{"substance": "LRRIIRKIIHIIKK [Peptide 12]", "values": [{"measurement": "S. aureus 930918-3 MIC, 0 mM NaCl", "setting": "S. aureus 930918-3", "result": "2.40 ± 0.17", "unit": "µg/mL"}, {"measurement": "S. aureus 930918-3 MIC, 175 mM NaCl", "setting": "S. aureus 930918-3", "result": "79.1 ± 0", "unit": "µg/mL"}, {"measurement": "E. coli DH-5α MIC, 0 mM NaCl", "setting": "E. coli DH-5α", "result": "1.36 ± 0.19", "unit": "µg/mL"}, {"measurement": "E. coli DH-5α MIC, 175 mM NaCl", "setting": "E. coli DH-5α", "result": "19.1 ± 5.0", "unit": "µg/mL"}, {"measurement": "P. aeruginosa MR-3007 MIC, 0 mM NaCl", "setting": "P. aeruginosa MR 3007", "result": "0.98 ± 0.08", "unit": "µg/mL"}, {"measurement": "P. aeruginosa MR-3007 MIC, 175 mM NaCl", "setting": "P. aeruginosa MR 3007", "result": "46.3 ± 9.1", "unit": "µg/mL"}, {"measurement": "E. coli ML-35p MIC, 0 mM NaCl", "setting": "E. coli ML-35p", "result": "0.68 ± 0.07", "unit": "µg/mL"}, {"measurement": "E. coli ML-35p MIC, 175 mM NaCl", "setting": "E. coli ML-35p", "result": ">79.1", "unit": "µg/mL"}, {"measurement": "MRSA ATCC 33591 MIC, 0 mM NaCl", "setting": "MRSA ATCC 33591", "result": "11.0 ± 3.96", "unit": "µg/mL"}, {"measurement": "MRSA ATCC 33591 MIC, 175 mM NaCl", "setting": "MRSA ATCC 33591", "result": ">79.1", "unit": "µg/mL"}, {"measurement": "P. aeruginosa PA-01 MIC, 0 mM NaCl", "setting": "P. aeruginosa PA-01", "result": "0.98 ± 0.05", "unit": "µg/mL"}, {"measurement": "P. aeruginosa PA-01 MIC, 175 mM NaCl", "setting": "P. aeruginosa PA-01", "result": "11.9 ± 4.7", "unit": "µg/mL"}]}
{"substance": "LRRIIRKIIHIIKK [SMAP29X-14B]", "values": [{"measurement": "EC50 P. aeruginosa PAO1", "setting": "P. aeruginosa PAO1; [1]", "result": "0.55 ± 0.03", "unit": "µg/mL"}, {"measurement": "EC50 P. aeruginosa PAO1", "setting": "P. aeruginosa PAO1; [2]", "result": "5.55 ± 0.42", "unit": "µg/mL"}]}
{"substance": "NIRRIIRKIIHIIKKY [SMAP29X-16D]", "values": [{"measurement": "EC50 P. aeruginosa PAO1", "setting": "P. aeruginosa PAO1; [1]", "result": "0.70 ± 0.36", "unit": "µg/mL"}, {"measurement": "EC50 P. aeruginosa PAO1", "setting": "P. aeruginosa PAO1; [2]", "result": "3.64 ± 1.75", "unit": "µg/mL"}]}
{"substance": "NLRRIIRKIIHIIKKY [SMAP29X-16A]", "values": [{"measurement": "EC50 P. aeruginosa PAO1", "setting": "P. aeruginosa PAO1; [1]", "result": "0.90 ± 0.54", "unit": "µg/mL"}, {"measurement": "EC50 P. aeruginosa PAO1", "setting": "P. aeruginosa PAO1; [2]", "result": "1.78 ± 0.26", "unit": "µg/mL"}]}
{"substance": "NLRRIIRKIIHIIKKY-NH2 [SMAP29X-16B]", "values": [{"measurement": "EC50 P. aeruginosa PAO1", "setting": "P. aeruginosa PAO1; [1]", "result": 0.75, "unit": "µg/mL"}, {"measurement": "EC50 P. aeruginosa PAO1", "setting": "P. aeruginosa PAO1; [2]", "result": 3.78, "unit": "µg/mL"}]}
{"substance": "RGLRALGRKIAHGVKAYG [SMAP29-18AA]", "values": [{"measurement": "EC50 P. aeruginosa PAO1", "setting": "P. aeruginosa PAO1; [1]", "result": "0.62 ± 0.13", "unit": "µg/mL"}, {"measurement": "EC50 P. aeruginosa PAO1", "setting": "P. aeruginosa PAO1; [2]", "result": "7.85 ± 1.16", "unit": "µg/mL"}]}
{"substance": "RIIRKIIHII-NH2 [SMAP29X-10]", "values": [{"measurement": "EC50 P. aeruginosa PAO1 μg/ml ± sem", "setting": "P. aeruginosa PAO1; ionic strength 25 mM", "result": "0.51 ± 0.00", "unit": "µg/mL"}, {"measurement": "EC50 P. aeruginosa PAO1 μg/ml ± sem", "setting": "P. aeruginosa PAO1; ionic strength 175 mM", "result": "18.67 ± 0.97", "unit": "µg/mL"}]}
{"substance": "RIIRKIIHIIK-NH2 [SMAP29X-11B]", "values": [{"measurement": "EC50 P. aeruginosa PAO1 μg/ml ± sem", "setting": "P. aeruginosa PAO1; ionic strength 25 mM", "result": "0.46 ± 0.02", "unit": "µg/mL"}, {"measurement": "EC50 P. aeruginosa PAO1 μg/ml ± sem", "setting": "P. aeruginosa PAO1; ionic strength 175 mM", "result": "10.42 ± 0.26", "unit": "µg/mL"}]}
{"substance": "RKFRNKIKEKLKKIG [CAP18-15a]", "values": [{"measurement": "MIC S. aureus [NaCl] High", "setting": "S. aureus 930918-3; 930918-3, pH 7.4", "result": ">250", "unit": "µg/mL"}, {"measurement": "MIC S. aureus [NaCl] Low", "setting": "S. aureus 930918-3; 930918-3, pH 7.4", "result": 19.5, "unit": "µg/mL"}, {"measurement": "MIC P. aeruginosa [NaCl] High", "setting": "P. aeruginosa MR 3007; MR 3007, pH 7.4", "result": 5.3, "unit": "µg/mL"}, {"measurement": "MIC P. aeruginosa [NaCl] Low", "setting": "P. aeruginosa MR 3007; MR 3007, pH 7.4", "result": 1.5, "unit": "µg/mL"}, {"measurement": "EC50 P. aeruginosa PAO1", "setting": "P. aeruginosa PAO1; PAO1", "result": ">20", "unit": "µg/mL"}, {"measurement": "EC50 P. aeruginosa PAO1", "setting": "P. aeruginosa PAO1; [1]", "result": "1.54 ± 0.43", "unit": "µg/mL"}, {"measurement": "MIC E. coli [NaCl] High", "setting": "E. coli ML-35p; high salt underlay (10 mM sodium phosphate buffer +100 mM NaCl, pH 7.4), Table 13", "result": 0.7, "unit": "µg/mL"}, {"measurement": "MIC E. coli [NaCl] Low", "setting": "E. coli ML-35p; low salt underlay (10 mM sodium phosphate buffer, pH 7.4), Table 13", "result": 0.2, "unit": "µg/mL"}, {"measurement": "MIC MRSA [NaCl] High", "setting": "MRSA ATCC 33591; ATCC 33591, pH 7.4", "result": ">250", "unit": "µg/mL"}, {"measurement": "MIC MRSA [NaCl] Low", "setting": "MRSA ATCC 33591; ATCC 33591, pH 7.4", "result": ">250", "unit": "µg/mL"}, {"measurement": "EC50", "setting": "E. coli DH5α; DH5α", "result": "240 ± 70", "unit": "nM"}, {"measurement": "EC50 E. coli DH5α", "setting": "E. coli DH5α; [1]", "result": "0.46 ± 0.12", "unit": "µg/mL"}]}
{"substance": "RRIIRKIIHII-NH2 [SMAP29X-11A]", "values": [{"measurement": "EC50 P. aeruginosa PAO1 μg/ml ± sem", "setting": "P. aeruginosa PAO1; ionic strength 25 mM", "result": "0.38 ± 0.04", "unit": "µg/mL"}, {"measurement": "EC50 P. aeruginosa PAO1 μg/ml ± sem", "setting": "P. aeruginosa PAO1; ionic strength 175 mM", "result": "4.92 ± 0.43", "unit": "µg/mL"}]}
{"substance": "RRIIRKIIHIIK-NH2 [Peptide 17]", "values": [{"measurement": "S. aureus 930918-3 MIC, 0 mM NaCl", "setting": "S. aureus 930918-3", "result": "2.29 ± 0.07", "unit": "µg/mL"}, {"measurement": "S. aureus 930918-3 MIC, 175 mM NaCl", "setting": "S. aureus 930918-3", "result": ">79.1", "unit": "µg/mL"}, {"measurement": "E. coli DH-5α MIC, 0 mM NaCl", "setting": "E. coli DH-5α", "result": "0.51 ± 0.09", "unit": "µg/mL"}, {"measurement": "E. coli DH-5α MIC, 175 mM NaCl", "setting": "E. coli DH-5α", "result": "46.1 ± 16.1", "unit": "µg/mL"}, {"measurement": "P. aeruginosa MR-3007 MIC, 0 mM NaCl", "setting": "P. aeruginosa MR 3007", "result": "0.72 ± 0.15", "unit": "µg/mL"}, {"measurement": "P. aeruginosa MR-3007 MIC, 175 mM NaCl", "setting": "P. aeruginosa MR 3007", "result": ">79.1", "unit": "µg/mL"}, {"measurement": "E. coli ML-35p MIC, 0 mM NaCl", "setting": "E. coli ML-35p", "result": "0.29 ± 0.06", "unit": "µg/mL"}, {"measurement": "E. coli ML-35p MIC, 175 mM NaCl", "setting": "E. coli ML-35p", "result": ">79.1", "unit": "µg/mL"}, {"measurement": "MRSA ATCC 33591 MIC, 0 mM NaCl", "setting": "MRSA ATCC 33591", "result": "11.9 ± 4.7", "unit": "µg/mL"}, {"measurement": "MRSA ATCC 33591 MIC, 175 mM NaCl", "setting": "MRSA ATCC 33591", "result": ">79.1", "unit": "µg/mL"}, {"measurement": "P. aeruginosa PA-01 MIC, 0 mM NaCl", "setting": "P. aeruginosa PA-01", "result": "0.69 ± 0.08", "unit": "µg/mL"}, {"measurement": "P. aeruginosa PA-01 MIC, 175 mM NaCl", "setting": "P. aeruginosa PA-01", "result": "17.2 ± 4.6", "unit": "µg/mL"}]}
{"substance": "RRIIRKIIHIIK-NH2 [SMAP29X-12]", "values": [{"measurement": "EC50 P. aeruginosa PAO1 μg/ml ± sem", "setting": "P. aeruginosa PAO1; ionic strength 25 mM", "result": "0.31 ± 0.01", "unit": "µg/mL"}, {"measurement": "EC50 P. aeruginosa PAO1 μg/ml ± sem", "setting": "P. aeruginosa PAO1; ionic strength 175 mM", "result": "3.83 ± 0.22", "unit": "µg/mL"}]}
{"substance": "RRIIRKIIHIIKK-NH2 [SMAP29X-13B]", "values": [{"measurement": "EC50 P. aeruginosa PAO1 μg/ml ± sem", "setting": "P. aeruginosa PAO1; ionic strength 25 mM", "result": "0.22 ± 0.02", "unit": "µg/mL"}, {"measurement": "EC50 P. aeruginosa PAO1 μg/ml ± sem", "setting": "P. aeruginosa PAO1; ionic strength 175 mM", "result": "1.51 ± 0.09", "unit": "µg/mL"}]}
